Measurements published in patent US20230181905A1, “Systems, Devices, and Methods for Enhancing the Neuroprotective Effects of Non-Invasive Gamma Stimulation with Pharmacological Agents” (Massachusetts Institute of Technology, priority 2021, published 2023).

Experiments:
[1] = tested on: gene expression in microglia, oligodendrocytes, neurons and astrocytes; experiment: Single-cell and single-nucleus RNA sequencing of brain tissue; format: in vivo, mouse; conditions: 5×FAD mice
Protocol: Gene expression changes in microglia are strongly associated with AD pathogenesis. Thus, the effect of these treatments on gene expression using single-cell RNA sequencing was investigates (10× Genomics, #Chromium Next GEM Single Cell 3′ Kit v3.1, 16 rxns PN-1000268). […] The gene expression changes between treatment conditions in the microglia cluster were examined. […] Further, due to the depth of the gene expression analysis sub-clustering of microglia was performed.
As neurons were not represented from the single-cell RNA-sequencing (FIGS. 8A-12), to study the effect of these treatments on gene expression in neurons, single nucleus RNA-sequencing was performed (10× Genomics, #Chromium Next GEM Kit v3.1, 16 rxns PN-1000268). […] The gene expression changes between treatment conditions in the interneurons cluster were examined.
Mice were killed and the brain tissue was freshly dissected out and the single cell suspension or nuclei was prepared. Single cell RNA libraries were prepared using the Chromium Next GEM Single Cell 3′ Kit v3.1 according to the manufacturer's protocol (10× Genomics). The generated scRNA-seq libraries were sequenced using NovaSeq. Gene counts were obtained by aligning reads to the mouse genome. […]
RNA sequencing: The animals and brain tissues were prepared, and then the single nuclei from the brain tissue was then obtained. […] The RNA-seq data was analyzed in R package. […]

perineuronal nets (WFA) = experiment: WFA staining of perineuronal nets; format: in vivo, mouse; conditions: 5×FAD mice
Text: Perineuronal nets (PNN) of neurons are necessary for neuronal integrity and circuit plasticity. Loss of PNN is shown to occur in AD. […] Therefore, the effect of the treatment on PNN was examined.
Antibodies: IBA1 (Synaptic Systems, Cat #234 004, dilution-1:500; Wako Chemicals, Cat #019-19741, dilution-1:500), GFAP (Thermo Fisher Scientific, Cat #130300, dilution-1:500), MEF2C (Cell Signaling Technology, Cat #5030T), MAC2 (Cedarlane Labs, Cat #CL8942AP, dilution-1:500), vGAT (Synaptic Systems, Cat #131 013, dilution-1:500), vGLUT (Synaptic Systems, Cat #1135 302, dilution-1:500), NeuN (Synaptic Systems, Cat #266 004, dilution-1:1000), MHC2 (EMD Millipore, Cat #MABF33, dilution-1:500), C1q (Abcam, Cat #ab182451, dilution-1:500), synaptophysin (Sigma, Cat #S5768). The following combination of secondary antibodies were used: (1) Alexa Fluor 488, 594 and 647, (2) Alexa Fluor 555 and 647, (3) Alexa Fluor 594 and 647, or (4) Alexa Fluor 488 and 647. All secondary antibodies were obtained from Invitrogen. Biotinylated Wisteria Floribunda Lectin (Vector Laboratories, Cat #B-1355, dilution-1:500) followed by streptavidin conjugated Alexa Fluor 594 (Thermo Fisher Scientific, Cat #S32356, dilution-1:1000) was used to examine WFA.

FC(F)(F)c1ccc(CNc2ccc(Cc3c[nH]c4ncc(Cl)cc34)cn2)cn1 [Plx3397, Pexidartinib]
genes related to Tyrobp-trem2-Apoe pathway in microglia ([1]; single-cell RNA sequencing, microglia cluster): upregulated | abnormal synaptic transmission genes in E-neurons ([1]; visual cortex, snRNA-seq): upregulated | WFA content within the microglia compared to control mice (perineuronal nets (WFA)): higher | WFA signals (perineuronal nets (WFA); hippocampus, chronic Plx3397 vs control): increased | PNN coverage (perineuronal nets (WFA); visual cortex): increased | WFA overall signal intensity (perineuronal nets (WFA); visual cortex): increased | WFA signals (perineuronal nets (WFA); visual cortex): 130.4±7.178 % of no treatment control | WFA+ PNN signals (perineuronal nets (WFA); visual cortex, Plx3397 50 days): 289400000±9384029 au
